One compound from paper PMC12752627, “Discovery of a Potent and Selective TEAD Degrader with Durable Degradation Activity” (Advanced Science, 2025) can be followed below.

Molecules are shown by their SMILES. Like-named read-outs stand apart in the source and are kept apart here.

One assay deals with KLE cells. Kind of assay: Cell viability assay (CTG, 72 h) KLE. The assay is classed as cell-based. Conditions: Homo sapiens, KLE, 72 h, 3-day compound treatment. The method, then:
(§1) Cells were seeded at a density of 1000 cells per well in 96‐well flat‐bottomed cell culture plates and cultured overnight at 37 °C with 5% CO2 to allow for cell attachment. The following day, different concentrations of compounds were added using an I‐DOT dispenser. After 72 h, 25 µL of CellTiter‐Meiluncell Luminescent Cell Viability Reagent (Meilunbio, #PWL111‐2) was added and incubated for 15 min at room temperature. Luminescence signals were then measured using an Envision plate reader (Revvity). Data were analyzed using GraphPad Prism 9.5 software.^[ [30] ^]

In another assay the test system is IKZF1-3, GSPT1. The experiment in a line: HiBiT off-target assessment (IMiD substrates). The settings on record: HiBiT-tagged cell lines, 6 h. It is filed as cell-based. The method, then: HiBiT cells were inoculated into 96‐well flat‐bottomed tissue culture plates at a density of 50 000 cells per well, followed by adding degraders into the wells using the I‐DOT dispenser. After 6 h of incubation, the cells were lysed and assayed for degradation using the Nano‐Glo HiBiT Lysis Assay System (Promega, #N3030). Luminescence signals were read using an Envision plate reader (Revvity) and the data were analyzed using GraphPad Prism 9.5 software.

The test system of a further assay is MSTO-211H cells. The experiment in a line: Cell viability assay (CTG, 72 h) MSTO-211H. The assay is classed as cell-based. The settings on record: Homo sapiens. The method, then: as §1
Assay [1] relates to MSTO-211H CRBN knockout cells. The experiment in a line: Cell viability assay, CRBN-knockout MSTO-211H. The assay is classed as cell-based. Conditions: Homo sapiens, Figure 3D, read-out: MSTO-211H: CRBN KO IC50. The method, then:
as §1

The target in a further assay is CRBN-DDB1 (Homo sapiens, UniProt Q96SW2). Kind of assay: CRBN binding assay, biochemical (HTRF). The settings on record: recombinant CRBN-DDB1, 1 h, read-out: Biochemical CRBN Binary Binding IC50 (nM ± SD). The method, then:
Next, 400 nL of compound solution (initial concentration 10 µM, followed by a three‐fold gradient dilution) was dispensed into the wells using the positive‐pressure‐based I‐DOT dispenser. After 1 h of incubation at room temperature, the HTRF signal was measured using an Envision plate reader (Revvity). Finally, the data were analyzed using non‐linear regression curves in GraphPad Prism 9.5 software.

The next assay concerns NCI-H226 cells. The experiment in a line: DIA proteomics in NCI-H226 cells. The assay is classed as cell-based, Homo sapiens. Conditions: 100 nM, 24 h. The procedure: Cells were seeded in 6‐well plates at 1 × 10⁶ cells well^−1 and treated with 100 nM KG‐FP‐003 (n = 3). After 24 h incubation, cells were harvested, washed with ice‐cold PBS, and stored at −80 °C. Cell pellets were lysed in 4 volumes of lysis buffer (1% SDS, 1% protease inhibitor cocktail) followed by 3 min sonication on ice. After centrifugation (12 000 g, 10 min, 4 °C), supernatants were collected for BCA protein quantification. Proteins were reduced with 5 mM DTT (56 °C, 30 min), alkylated with 11 mM iodoacetamide (RT, dark, 15 min), and diluted with 200 mM TEAB to reduce urea concentration below 2 M. Trypsin digestion (1:50 enzyme‐to‐protein ratio) was performed at 37 °C overnight followed by additional 4 h digestion. Peptides were desalted using Strata‐X SPE columns. […] MS analysis was performed on a timsTOF Pro mass spectrometer in dia‐PASEF mode (ESI voltage: 1.75 kV; scan range: 300–1500 m z^−1). DIA data were processed using DIA‐NN (v1.8) against the Homo_sapiens_9606_SP_20 231 220.fasta database (20429 entries) with reversed decoys, using trypsin as the cleavage enzyme. Fixed modifications included N‐terminal methionine excision and carbamidomethylation of cysteine, with FDR set at <1%.

A further assay relates to TEAD1, TEAD3, and TEAD4. The experiment in a line: Immunoblot dose-response in TEAD1-mNeonGreen fusion NCI-H1299 cells. The assay is classed as cell-based. The settings on record: 6 h. The procedure:
Immunoblotting was carried out as previously described.^[ [29] ^] Cells were seeded in 6‐well plates (Yeasen, #84011ES50) at a density of 1 million cells per well. The following day, cells were treated with compounds at the required concentrations, with the DMSO concentration kept below 0.4‰ to prevent toxic effects on the cells. The collected cell pellets were washed three times with PBS (Meilunbio, #MA0015) and resuspended in 120 µL of RIPA lysis buffer (Meilunbio, #MA0151) containing 1% protease inhibitor (Meilunbio, #MB2678‐2). The cells were then sonicated on ice and centrifuged at 12 000 rpm for 15 min at 4 °C to remove cellular debris. Protein concentrations were determined using the BCA Protein Quantification Kit (Meilunbio, #MA0082‐1). The protein samples were normalized, boiled at 99 °C for 10 min, and then subjected to electrophoresis on a 10% SDS‐PAGE gel. The separated protein bands were transferred to nitrocellulose membranes, blocked with TBST containing 5% BSA, and incubated with the indicated primary antibodies. Finally, the blots were imaged using an Amersham Typhoon NIR imager.

Chain of CRBN-DDB1 (Q96SW2 whole entry): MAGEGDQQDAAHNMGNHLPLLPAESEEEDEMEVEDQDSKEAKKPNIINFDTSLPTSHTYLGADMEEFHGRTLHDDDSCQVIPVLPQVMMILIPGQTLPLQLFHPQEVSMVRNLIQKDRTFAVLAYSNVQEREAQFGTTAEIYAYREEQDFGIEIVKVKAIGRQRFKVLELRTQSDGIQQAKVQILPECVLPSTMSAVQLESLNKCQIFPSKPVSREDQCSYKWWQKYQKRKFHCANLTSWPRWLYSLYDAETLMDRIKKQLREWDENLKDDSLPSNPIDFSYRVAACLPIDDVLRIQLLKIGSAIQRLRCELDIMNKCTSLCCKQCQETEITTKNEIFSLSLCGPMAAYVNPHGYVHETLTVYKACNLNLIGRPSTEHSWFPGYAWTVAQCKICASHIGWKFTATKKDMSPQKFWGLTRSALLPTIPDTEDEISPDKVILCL

`CNC(=O)c1cc2c(c(F)c1-c1c(Cl)c(F)cc3c1C[C@@](CN[C@H]1CC[C@H](C(=O)N4CCC(CC5CCN(C(=O)COc6ccc(N7CCC(=O)NC7=O)c(C)c6)CC5)CC4)CC1)(c1ccccc1)O3)[C@@H](O)[C@@H](C)C2` [KG-FP-003]: the IC50 is 59 ± 34 nM in the assay on KLE cells; 47 ± 5 nM with MSTO-211H cells (72 h, 3-day antiproliferation, Figure 3C, read-out: IC50 (nM ± SD), MSTO-211H); 47 ± 5 nM with MSTO-211H cells (wild-type, Figure 3D, read-out: MSTO-211H: WT IC50); 543 ± 50 nM in assay [1]; 591 ± 21 nM on CRBN-DDB1. The “Off-target degradation of IMiD substrates IKZF1-3 and GSPT1” value in the assay on IKZF1-3, GSPT1 is reported as “no off‐target degradation was detected”. Besides, the Proteome-wide selectivity result with NCI-H226 cells was “selective downregulation of TEAD1 and TEAD4”. In the assay with TEAD1, TEAD3, and TEAD4, the “DC50 against TEAD1, TEAD3, and TEAD4 by immunoblot” value is reported as “nanomolar range”.
